# Experimental data: ChEMBL document CHEMBL1123377, “Potent antagonists of vasopressin antidiuretic activity that lack the beta,beta-cyclopentamethylene-beta-mercaptopropionic acid substitution at position 1” (J Med Chem, 1986)
# Calls of active or inactive are those of the source. No cut-off for these calls is given here.
# Assays:
# Vasopressin V2 receptor [1] = biological target: T1, Vasopressin V2 receptor (Sus scrofa, UniProt P32307); assay: Compound was tested for inhibition against V2 vasopressin receptor in pig renal medullary membrane preparations.; format: cell membranes, Renal medulla
# T1 sequence (P32307 whole entry): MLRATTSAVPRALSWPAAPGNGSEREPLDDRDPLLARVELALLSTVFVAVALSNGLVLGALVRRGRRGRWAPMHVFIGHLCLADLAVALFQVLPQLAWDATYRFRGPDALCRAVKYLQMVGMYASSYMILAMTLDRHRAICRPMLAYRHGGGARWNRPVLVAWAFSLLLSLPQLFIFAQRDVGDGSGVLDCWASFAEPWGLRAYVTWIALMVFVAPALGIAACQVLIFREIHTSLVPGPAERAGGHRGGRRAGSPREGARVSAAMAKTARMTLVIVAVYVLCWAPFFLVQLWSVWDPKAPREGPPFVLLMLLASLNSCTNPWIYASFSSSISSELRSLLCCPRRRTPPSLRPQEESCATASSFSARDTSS
# Rattus norvegicus [2] = assay: Compound was tested in vivo to lower urine osmolality to 300 mOsm/kg in hydropenic rat preparation.; format: functional
# [3] = biological target: Vasopressin V2 receptor (Sus scrofa) (UniProt P32307); assay: Compound was tested for binding affinity against V2 vasopressin receptor in pig renal medullary membrane preparations using tritiated LVP.; format: cell membranes; conditions: Renal medulla
# Vasopressin V2 receptor (Sus scrofa), sequence (P32307 whole entry): as above
# Sus scrofa = species on record: Sus scrofa; assay: Compound was tested for adenylate cyclase activation in pig renal medullary membrane preparations.; format: functional; conditions: Renal medulla
# Rattus norvegicus [4] = assay: Compound was tested in vivo to lower urine osmolality to 300 mOsm/kg in hydropenic rat preparation; na=No activity; format: functional, organism-based
# Vasopressin V2 receptor [5] = biological target: T1, Vasopressin V2 receptor; assay: Compound was tested for inhibition against V2 vasopressin receptor in pig renal medullary membrane preparations; e=Partial agonist with a relative Vmax of 14%.; format: functional, cell membranes, Renal medulla
K bind [3],SMILES,ED300 (Rattus norvegicus [2]),also measured
–,CCOc1ccc(C[C@H]2NC(=O)CC(CC)(CC)SSC[C@@H](C(=O)N3CCC[C@H]3C(=O)N[C@@H](CCCNC(=N)N)C(N)=O)NC(=O)[C@H](CC(N)=O)NC(=O)[C@H](C(C)C)NC(=O)[C@H](Cc3ccccc3)NC2=O)cc1,–,Ki (Vasopressin V2 receptor [1]): 8.9 nM
–,CCOc1ccc(C[C@H]2NC(=O)CC(CC)(CC)SSC[C@@H](C(=O)N3CCC[C@H]3C(=O)N[C@@H](CCCN=C(N)N)C(=O)NCC(N)=O)NC(=O)[C@H](CC(N)=O)NC(=O)[C@H](C(C)C)NC(=O)[C@H](Cc3ccccc3)NC2=O)cc1 [listing 1 of 2 here],0.023 mg/kg,–
–,CCOc1ccc(C[C@H]2NC(=O)CC(CC)(CC)SSC[C@@H](C(=O)N3CCC[C@H]3C(=O)N[C@@H](CCCN=C(N)N)C(N)=O)NC(=O)[C@H](CC(N)=O)NC(=O)[C@H](C(C)C)NC(=O)[C@H](Cc3ccccc3)NC2=O)cc1,0.012 mg/kg,–
–,CCOc1ccc(C[C@H]2NC(=O)CC(CC)(CC)SSC[C@@H](C(=O)N3CCC[C@H]3C(=O)N[C@@H](CCCN=C(N)N)C(=O)NCC(N)=O)NC(=O)[C@H](CC(N)=O)NC(=O)[C@H](C(C)C)NC(=O)[C@H](Cc3ccccc3)NC2=O)cc1 [listing 2 of 2 here],–,Ki (Vasopressin V2 receptor [1]): 5.3 nM
35 nM,CCOc1ccc(C[C@H]2NC(=O)CC(CC)(CC)SSC[C@H](C(=O)N3CCC[C@H]3C(=O)N[C@H](CCCN=C(N)N)C(=O)NCC(N)=O)NC(=O)[C@@H](CC(N)=O)NC(=O)[C@H](C(C)C)NC(=O)[C@@H](Cc3ccccc3)NC2=O)cc1,–,–
450 nM,CCOc1ccc(C[C@@H]2NC(=O)CC(CC)(CC)SSC[C@H](C(=O)N3CCC[C@H]3C(=O)N[C@H](CCCN=C(N)N)C(N)=O)NC(=O)[C@@H](CC(N)=O)NC(=O)[C@H](C(C)C)NC(=O)[C@@H](Cc3ccccc3)NC2=O)cc1,0.12 mg/kg,–
30 nM,CCOc1ccc(C[C@H]2NC(=O)CC(CC)(CC)SSC[C@H](C(=O)N3CCC[C@H]3C(=O)N[C@H](CCCN=C(N)N)C(N)=O)NC(=O)[C@@H](CC(N)=O)NC(=O)[C@H](C(C)C)NC(=O)[C@@H](Cc3ccccc3)NC2=O)cc1,–,–
39 nM,CCOc1ccc(C[C@H]2NC(=O)CC(C)(C)SSC[C@H](C(=O)N3CCC[C@H]3C(=O)N[C@H](CCCN=C(N)N)C(=O)NCC(N)=O)NC(=O)[C@@H](CC(N)=O)NC(=O)[C@H](C(C)C)NC(=O)[C@@H](Cc3ccccc3)NC2=O)cc1,–,K act (Sus scrofa): 79 nM; ED300 (Rattus norvegicus [4]): inactive; Ki (Vasopressin V2 receptor [5]): Partial agonist
–,CCOc1ccc(C[C@H]2NC(=O)CC3(CCCCC3)SSC[C@@H](C(=O)N3CCC[C@H]3C(=O)N[C@@H](CCCN=C(N)N)C(=O)NCC(N)=O)NC(=O)[C@H](CC(N)=O)NC(=O)[C@H](C(C)C)NC(=O)[C@H](Cc3ccccc3)NC2=O)cc1,0.011 mg/kg,–

SMILES,K bind [3],ED300 (Rattus norvegicus [2]),also measured
CCOc1ccc(C[C@@H]2NC(=O)CC3(CCCCC3)SSC[C@H](C(=O)N3CCC[C@H]3C(=O)N[C@H](CCCN=C(N)N)C(N)=O)NC(=O)[C@@H](CC(N)=O)NC(=O)[C@H](C(C)C)NC(=O)[C@@H](Cc3ccccc3)NC2=O)cc1,280 nM,0.3 mg/kg,–
CCOc1ccc(C[C@H]2NC(=O)CC3(CCCCC3)SSC[C@H](C(=O)N3CCC[C@H]3C(=O)N[C@H](CCCN=C(N)N)C(N)=O)NC(=O)[C@@H](CC(N)=O)NC(=O)[C@H](C(C)C)NC(=O)[C@@H](Cc3ccccc3)NC2=O)cc1,12 nM,0.01 mg/kg,–
CCOc1ccc(C[C@H]2NC(=O)CC3(CCCCC3)SSC[C@H](C(=O)N3CCC[C@H]3C(=O)N[C@H](CCCN=C(N)N)C(=O)NCC(N)=O)NC(=O)[C@@H](CC(N)=O)NC(=O)[C@H](C(C)C)NC(=O)[C@@H](Cc3ccccc3)NC2=O)cc1,12 nM,–,–
